Reference: US8105431B2, “Subphthalocyanine derivative having phosphorus derivative as axially substituted group, method for manufacturing the same and optical film using the same” (Orient Chemical Industries, Ltd., priority 2008, dated 2012)

Legend:
Type in all cases: physicochemical
[1] = Solubility to methyl ethyl ketone; settings: for solubility (in words): compared with the halo boron intermediate compounds
[2] = Absorption measurement in chloroform (maximum absorption wavelength, molar absorbance coefficient); settings: for Molar Absorbance Coefficient: 1 cm cell
Method: Measuring methods of the molar absorbance coefficient of the subphthalocyanine derivatives having the phosphorus derivative-substituted group obtained in the Examples 1-9 and the halo boron subphthalocyanine obtained in Synthesis Examples 1-4 were carried out as follows.
10.0 mg of the obtained compound was completely dissolved in 100 ml of chloroform. Then 10 ml of the solution was diluted with 100 ml of chloroform. Thus the absorbance of the obtained solution was measured using spectrophotometer (UV-1700 available from Shimadzu Corporation). Molar absorbance coefficient • was calculated using the following equation: A=•×C×l (A: absorbance, C: concentration (mol/L), l: light path (cm)) In the measurement, light pass length of the cell is 1 cm long.

[3] = Dissolution in coating solution for film manufacture; settings: 0.5 parts in 68.5 parts cyclohexanone and 30 parts methyl ethyl ketone with 1.0 parts polycarbonate
Method: 0.5 parts of Compound 1 obtained in Example 1 and 1.0 parts of polycarbonate were added into 68.5 parts of cyclohexanone and 30 parts of methyl ethyl ketone and stirred and dissolved to obtain a coating solution.
A film was manufactured in the same way as in Example 10 except that Intermediate Compound 1 obtained in Synthesis Example 1 was used in place of Compound 1 in Example 10.

| solubility (in words) ([1]; methyl ethyl ketone) | Solubility ([1]; methyl ethyl ketone) | dissolution in coating liquid [3] | Compound | Solubility ([1]; Solvent: Methyl Ethyl Ketone) | Maximum Absorption Wavelength [2] | Molar Absorbance Coefficient [2] |
| --- | --- | --- | --- | --- | --- | --- |
| remarkably improved |  |  | O=P(OB1n2c3c4ccccc4c2/N=C2N=C(/N=c4/c5ccccc5c(n41)=N3)c1ccccc1\2)(c1ccccc1)c1ccccc1 [Compound 1, SubPcBOPOPh2] | 0.44 wt % | 564.0 nm | 7.69 ×10^−4 Lmol^−1cm^−1 |
| remarkably improved | more than 10 % by weight |  | CCCCOP(=O)(OCCCC)OB1n2c3c4ccccc4c2/N=C2N=C(/N=c4/c5ccccc5c(n41)=N3)c1ccccc1\2 [Compound 4, SubPcBOPO(OBu)2] | >10 wt % | 562.5 nm | 7.78 ×10^−4 Lmol^−1cm^−1 |
|  |  | could not be fully dissolved | ClB1n2c3c4ccccc4c2/N=C2N=C(/N=c4/c5ccccc5c(n41)=N3)c1ccccc1\2 [Intermediate Compound 1, SubPcBCl, reference compound] | 0.003 wt % | 565.0 nm | 5.10 ×10^−4 Lmol^−1cm^−1 |
|  |  |  | (PhS)3SubPcBCl [Intermediate Compound 11, reference compound] |  | 586.0 nm | 7.58 ×10^−4 Lmol^−1cm^−1 |
|  |  |  | (PhS)3SubPcBOPO(OBu)2 [Compound 26] | >10 wt % | 584.0 nm | 9.95 ×10^−4 Lmol^−1cm^−1 |
|  |  |  | (PhS)3SubPcBOPOPh2 [Compound 24] | >10 wt % | 584.5 nm | 7.24 ×10^−4 Lmol^−1cm^−1 |
|  |  |  | (i-C5H11S)3 SubPcBCl [Intermediate Compound 6, reference compound] |  | 587.5 nm | 5.82 ×10^−4 Lmol^−1cm^−1 |
|  |  |  | (i-C5H11S)3SubPcBOPO(OPh)2 [Compound 13] |  | 586.5 nm | 8.20 ×10^−4 Lmol^−1cm^−1 |
|  |  |  | (i-C5H11S)3SubPcBOPOPh2 [Compound 11] | >10 wt % | 586.0 nm | 7.12 ×10^−4 Lmol^−1cm^−1 |
|  |  |  | (t-Bu)3 SubPcBCl [Intermediate Compound 2, reference compound] | >10 wt % |  |  |
|  |  |  | (t-Bu)3SubPcBOPO(OBu)2 [Compound 7] | >10 wt % | 568.0 nm | 7.62 ×10^−4 Lmol^−1cm^−1 |
|  |  |  | (t-Bu)3SubPcBOPOPh2 [Compound 5] | >10 wt % | 570.5 nm | 8.74 ×10^−4 Lmol^−1cm^−1 |

| Compound | solubility (in words) ([1]; methyl ethyl ketone) | Solubility ([1]; methyl ethyl ketone) | dissolution in coating liquid [3] | Solubility ([1]; Solvent: Methyl Ethyl Ketone) | Maximum Absorption Wavelength [2] | Molar Absorbance Coefficient [2] |
| --- | --- | --- | --- | --- | --- | --- |
| O=P(OB1n2c3c4ccccc4c2/N=C2N=C(/N=c4/c5ccccc5c(n41)=N3)c1ccccc1\2)(Oc1ccccc1)Oc1ccccc1 [Compound 3, SubPcBOPO(OPh)2] | remarkably improved |  |  | 0.34 wt % | 564.5 nm | 6.96 ×10^−4 Lmol^−1cm^−1 |
